In ChEMBL document CHEMBL1201862, “PubChem BioAssay data set” (2004):
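Step 1: Grow cells in 96-well plates. Step 2: Expose to compound for 48 hours at 5 concentrations. Step 3: Interpolate endpoints linearly; if unreached, use highest concentration. GI50 is the concentration that inhibits growth by half.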 Activity calls are given as the source filed them. Cut-off read from the data, not from the text of the source: active = GI50 up to about 1.1 µM and inactive = higher.

Experiments:
Assay in all cases: growth of human tumour cells (NCI), 48 h
HL-60 = tested on: HL-60
SK-MEL-28 = tested on: SK-MEL-28
NCI-H226 = tested on: NCI-H226
KM12 = tested on: KM12
SF-295 = tested on: SF-295
MCF7 = tested on: MCF7
ACHN = tested on: ACHN
OVCAR-5 = tested on: OVCAR-5
SF-539 = tested on: SF-539
HCT-15 = tested on: HCT-15
TK-10 = tested on: TK-10
SF-268 = tested on: SF-268
RPMI-8226 = tested on: RPMI-8226
SK-OV-3 = tested on: SK-OV-3
UACC-62 = tested on: UACC-62
HOP-92 = tested on: HOP-92
SW-620 = tested on: SW-620
M14 = tested on: M14
HCT-116 = tested on: HCT-116
786-0 = tested on: 786-0

Structure (SMILES)	GI50 (HL-60)	GI50 (SK-MEL-28)	GI50 (NCI-H226)	GI50 (KM12)	GI50 (SF-295)	GI50 (MCF7)	GI50 (ACHN)	GI50 (OVCAR-5)	GI50 (SF-539)	GI50 (HCT-15)	GI50 (TK-10)	GI50 (SF-268)	GI50 (RPMI-8226)	GI50 (SK-OV-3)	GI50 (UACC-62)	GI50 (HOP-92)	GI50 (SW-620)	GI50 (M14)	GI50 (HCT-116)	GI50 (786-0)
COc1ccc(-c2cc(=O)c3c(O)c(OC)c(OC)c(OC)c3o2)cc1 [GARDENIN B]	0.863 µM (active)	> 100 µM (inactive)	> 100 µM (inactive)	0.92 µM (active)	20.7 µM (inactive)	4.86 µM (inactive)	> 100 µM (inactive)	98.6 µM (inactive)	> 61.7 µM (inactive)	2.37 µM	26.2 µM (inactive)	> 68.4 µM (inactive)	> 28.1 µM (inactive)	8.38 µM (inactive)	45.3 µM (inactive)	27.4 µM (inactive)	2.13 µM (inactive)	16.5 µM (inactive)	13.4 µM (inactive)	21.5 µM (inactive)
CCN(CC)Cc1c(/C=C\c2cc(OC)c(OC)c(OC)c2)ccc(OC)c1O	3.85 µM (inactive)	15 µM (inactive)	3.67 µM (inactive)	1.69 µM (inactive)	2.03 µM (inactive)	3.17 µM (inactive)	8.59 µM (inactive)	9.48 µM (inactive)	2.29 µM (inactive)	2.71 µM	9.4 µM (inactive)	5.21 µM (inactive)	3 µM (inactive)	2.12 µM (inactive)	2.43 µM (inactive)	8.87 µM (inactive)	2.77 µM (inactive)	2.79 µM (inactive)	3.33 µM (inactive)	3.83 µM (inactive)
Clc1cccc(/C=N/C23CC4CC(CC(C4)C2)C3)c1Cl	6.28 µM (inactive)	> 10 µM (inactive)	> 10 µM (inactive)	> 10 µM (inactive)	> 10 µM (inactive)	> 10 µM (inactive)	> 10 µM (inactive)	> 10 µM (inactive)	> 10 µM (inactive)	> 10 µM	> 10 µM (inactive)	> 10 µM (inactive)	> 10 µM (inactive)	> 10 µM (inactive)	> 10 µM (inactive)	> 10 µM (inactive)	> 10 µM (inactive)	> 10 µM (inactive)	6.35 µM (inactive)	> 10 µM (inactive)
